Assay results as given in PubChem BioAssay (NCI).
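Exposure lasted 48 hours, with cells grown in 96-well plates and compounds tested at five concentrations. TGI is the concentration that stops growth completely.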

Key:
Assay in all cases: NCI tumour cell line growth inhibition, 48 h
MCF7 breast = test system: MCF7 breast
CCRF-CEM leukemia = test system: CCRF-CEM leukemia
MDA-MB-435 = test system: MDA-MB-435
SK-OV-3 ovarian = test system: SK-OV-3 ovarian
OVCAR-5 ovarian = test system: OVCAR-5 ovarian
SF-295 CNS = test system: SF-295 CNS
IGROV1 ovarian = test system: IGROV1 ovarian
BT-549 breast = test system: BT-549 breast
EKVX NSCLC = test system: EKVX NSCLC
SNB-19 CNS = test system: SNB-19 CNS
MDA-MB-231 breast = test system: MDA-MB-231 breast
SW-620 colon = test system: SW-620 colon
MDA-N = test system: MDA-N
PC-3 prostate = test system: PC-3 prostate
HOP-62 NSCLC = test system: HOP-62 NSCLC
NCI-H23 lung = test system: NCI-H23 lung
RPMI-8226 leukemia = test system: RPMI-8226 leukemia
COLO 205 colon = test system: COLO 205 colon
DU-145 prostate = test system: DU-145 prostate
HOP-92 NSCLC = test system: HOP-92 NSCLC
OVCAR-8 ovarian = test system: OVCAR-8 ovarian
SK-MEL-28 melanoma = test system: SK-MEL-28 melanoma
HT29 colon = test system: HT29 colon
UACC-257 melanoma = test system: UACC-257 melanoma
OVCAR-4 ovarian = test system: OVCAR-4 ovarian
NCI-H460 lung = test system: NCI-H460 lung
SN12C renal = test system: SN12C renal
SK-MEL-2 melanoma = test system: SK-MEL-2 melanoma
TK-10 renal = test system: TK-10 renal
SF-539 CNS = test system: SF-539 CNS
HCT-15 colon = test system: HCT-15 colon
CAKI-1 renal = test system: CAKI-1 renal
UACC-62 melanoma = test system: UACC-62 melanoma
UO-31 renal = test system: UO-31 renal
SR leukemia = test system: SR leukemia
HS 578T breast = test system: HS 578T breast
M14 melanoma = test system: M14 melanoma
MOLT-4 leukemia = test system: MOLT-4 leukemia
LOX IMVI melanoma = test system: LOX IMVI melanoma
SF-268 CNS = test system: SF-268 CNS
U251 CNS = test system: U251 CNS
NCI/ADR-RES ovarian = test system: NCI/ADR-RES ovarian
SNB-75 CNS = test system: SNB-75 CNS
NCI-H226 lung = test system: NCI-H226 lung
K-562 leukemia = test system: K-562 leukemia
MALME-3M melanoma = test system: MALME-3M melanoma
A498 renal = test system: A498 renal
KM12 colon = test system: KM12 colon
OVCAR-3 ovarian = test system: OVCAR-3 ovarian
HCC-2998 colon = test system: HCC-2998 colon
T-47D breast = test system: T-47D breast
786-0 renal = test system: 786-0 renal
HL-60(TB) leukemia = test system: HL-60(TB) leukemia
ACHN renal = test system: ACHN renal
HCT-116 colon = test system: HCT-116 colon
RXF 393 renal = test system: RXF 393 renal
A549 NSCLC = test system: A549 NSCLC
NCI-H522 lung = test system: NCI-H522 lung
SK-MEL-5 melanoma = test system: SK-MEL-5 melanoma

COc1ccc2c(c1)C(N)=C(c1ccccc1OC)C2=O
TGI (MCF7 breast): > 100 µM
TGI (CCRF-CEM leukemia): > 100 µM
TGI (MDA-MB-435): > 100 µM
TGI (SK-OV-3 ovarian): > 100 µM
TGI (OVCAR-5 ovarian): > 100 µM
TGI (SF-295 CNS): > 100 µM
TGI (IGROV1 ovarian): > 100 µM
TGI (BT-549 breast): > 100 µM
TGI (EKVX NSCLC): > 100 µM
TGI (SNB-19 CNS): > 100 µM
TGI (MDA-MB-231 breast): > 100 µM
TGI (SW-620 colon): > 100 µM
TGI (MDA-N): > 100 µM
TGI (PC-3 prostate): > 100 µM
TGI (HOP-62 NSCLC): > 100 µM
TGI (NCI-H23 lung): > 100 µM
TGI (RPMI-8226 leukemia): > 100 µM
TGI (COLO 205 colon): > 100 µM
TGI (DU-145 prostate): > 100 µM
TGI (HOP-92 NSCLC): > 100 µM
TGI (OVCAR-8 ovarian): > 100 µM
TGI (SK-MEL-28 melanoma): > 100 µM
TGI (HT29 colon): > 100 µM
TGI (UACC-257 melanoma): > 100 µM
TGI (OVCAR-4 ovarian): > 100 µM
TGI (NCI-H460 lung): > 100 µM
TGI (SN12C renal): > 100 µM
TGI (SK-MEL-2 melanoma): > 100 µM
TGI (TK-10 renal): > 100 µM
TGI (SF-539 CNS): > 100 µM
TGI (HCT-15 colon): > 100 µM
TGI (CAKI-1 renal): > 100 µM
TGI (UACC-62 melanoma): > 100 µM
TGI (UO-31 renal): > 100 µM
TGI (SR leukemia): > 100 µM
TGI (HS 578T breast): > 100 µM
TGI (M14 melanoma): > 100 µM
TGI (MOLT-4 leukemia): > 100 µM
TGI (LOX IMVI melanoma): > 100 µM
TGI (SF-268 CNS): > 100 µM
TGI (U251 CNS): > 100 µM
TGI (NCI/ADR-RES ovarian): > 100 µM
TGI (SNB-75 CNS): > 100 µM
TGI (NCI-H226 lung): > 100 µM
TGI (K-562 leukemia): > 100 µM
TGI (MALME-3M melanoma): > 100 µM
TGI (A498 renal): > 100 µM
TGI (KM12 colon): > 100 µM
TGI (OVCAR-3 ovarian): > 100 µM
TGI (HCC-2998 colon): > 100 µM
TGI (T-47D breast): > 100 µM
TGI (786-0 renal): > 100 µM
TGI (HL-60(TB) leukemia): > 100 µM
TGI (ACHN renal): > 100 µM
TGI (HCT-116 colon): > 100 µM
TGI (RXF 393 renal): > 100 µM

Oc1ccc(-c2nc3ccc4ccccc4c3c3c2CCCC3)c(O)c1
TGI (MCF7 breast): > 69.8 µM
TGI (MDA-MB-435): > 63.7 µM
TGI (SK-OV-3 ovarian): > 100 µM
TGI (OVCAR-5 ovarian): 49.1 µM
TGI (SF-295 CNS): > 74.1 µM
TGI (IGROV1 ovarian): > 56.5 µM
TGI (BT-549 breast): > 100 µM
TGI (EKVX NSCLC): > 100 µM
TGI (SNB-19 CNS): 71.2 µM
TGI (MDA-MB-231 breast): 37 µM
TGI (SW-620 colon): > 68 µM
TGI (MDA-N): 39.3 µM
TGI (PC-3 prostate): > 100 µM
TGI (HOP-62 NSCLC): > 100 µM
TGI (NCI-H23 lung): > 100 µM
TGI (RPMI-8226 leukemia): > 100 µM
TGI (COLO 205 colon): 23.9 µM
TGI (DU-145 prostate): > 100 µM
TGI (HOP-92 NSCLC): > 100 µM
TGI (OVCAR-8 ovarian): > 68.1 µM
TGI (SK-MEL-28 melanoma): > 50.6 µM
TGI (HT29 colon): 25.4 µM
TGI (UACC-257 melanoma): > 100 µM
TGI (OVCAR-4 ovarian): > 100 µM
TGI (NCI-H460 lung): > 100 µM
TGI (SN12C renal): 32.8 µM
TGI (SK-MEL-2 melanoma): 37.6 µM
TGI (TK-10 renal): 97.9 µM
TGI (SF-539 CNS): > 73.2 µM
TGI (A549 NSCLC): > 100 µM
TGI (HCT-15 colon): > 100 µM
TGI (CAKI-1 renal): > 100 µM
TGI (UACC-62 melanoma): > 50.6 µM
TGI (UO-31 renal): > 100 µM
TGI (SR leukemia): > 100 µM
TGI (HS 578T breast): 88.9 µM
TGI (M14 melanoma): 35.9 µM
TGI (MOLT-4 leukemia): > 100 µM
TGI (LOX IMVI melanoma): > 100 µM
TGI (SF-268 CNS): > 72 µM
TGI (U251 CNS): > 40.5 µM
TGI (NCI/ADR-RES ovarian): > 100 µM
TGI (SNB-75 CNS): > 100 µM
TGI (NCI-H226 lung): > 100 µM
TGI (K-562 leukemia): > 100 µM
TGI (MALME-3M melanoma): > 59.1 µM
TGI (A498 renal): > 100 µM
TGI (NCI-H522 lung): 41.1 µM
TGI (KM12 colon): > 100 µM
TGI (OVCAR-3 ovarian): > 100 µM
TGI (HCC-2998 colon): > 100 µM
TGI (SK-MEL-5 melanoma): 27.1 µM
TGI (T-47D breast): > 100 µM
TGI (786-0 renal): 24 µM
TGI (HL-60(TB) leukemia): > 100 µM
TGI (ACHN renal): 85 µM
TGI (HCT-116 colon): 22.6 µM
TGI (RXF 393 renal): > 84.3 µM

CCC1CC(C)C(O)/C=C/C=C/CC(C)OC(=O)CC(O)C(OC)C1OC1OC(C)CC(O)(C(C)=O)C1O (stereo unspecified)
TGI (MCF7 breast): > 100 µM
TGI (CCRF-CEM leukemia): > 100 µM
TGI (MDA-MB-435): > 100 µM
TGI (SK-OV-3 ovarian): > 100 µM
TGI (OVCAR-5 ovarian): > 100 µM
TGI (SF-295 CNS): > 100 µM
TGI (IGROV1 ovarian): > 100 µM
TGI (BT-549 breast): > 100 µM
TGI (EKVX NSCLC): > 100 µM
TGI (SNB-19 CNS): 79.5 µM
TGI (MDA-MB-231 breast): 67.9 µM
TGI (SW-620 colon): > 100 µM
TGI (MDA-N): > 100 µM
TGI (PC-3 prostate): > 100 µM
TGI (HOP-62 NSCLC): > 100 µM
TGI (NCI-H23 lung): > 100 µM
TGI (RPMI-8226 leukemia): > 100 µM
TGI (COLO 205 colon): > 100 µM
TGI (DU-145 prostate): > 100 µM
TGI (HOP-92 NSCLC): > 100 µM
TGI (OVCAR-8 ovarian): > 100 µM
TGI (SK-MEL-28 melanoma): > 100 µM
TGI (HT29 colon): > 100 µM
TGI (UACC-257 melanoma): > 100 µM
TGI (OVCAR-4 ovarian): 42.8 µM
TGI (SN12C renal): > 100 µM
TGI (SK-MEL-2 melanoma): > 100 µM
TGI (TK-10 renal): > 100 µM
TGI (SF-539 CNS): > 100 µM
TGI (A549 NSCLC): > 100 µM
TGI (HCT-15 colon): > 100 µM
TGI (CAKI-1 renal): > 100 µM
TGI (UACC-62 melanoma): > 100 µM
TGI (UO-31 renal): > 100 µM
TGI (SR leukemia): 59.8 µM
TGI (HS 578T breast): > 100 µM
TGI (M14 melanoma): > 100 µM
TGI (MOLT-4 leukemia): > 100 µM
TGI (LOX IMVI melanoma): > 100 µM
TGI (SF-268 CNS): > 100 µM
TGI (U251 CNS): > 100 µM
TGI (NCI/ADR-RES ovarian): > 100 µM
TGI (SNB-75 CNS): > 100 µM
TGI (NCI-H226 lung): > 100 µM
TGI (MALME-3M melanoma): > 100 µM
TGI (A498 renal): > 100 µM
TGI (NCI-H522 lung): 51.4 µM
TGI (KM12 colon): > 100 µM
TGI (OVCAR-3 ovarian): > 100 µM
TGI (HCC-2998 colon): 66.5 µM
TGI (SK-MEL-5 melanoma): > 100 µM
TGI (T-47D breast): > 100 µM
TGI (786-0 renal): > 100 µM
TGI (HL-60(TB) leukemia): 42.4 µM
TGI (ACHN renal): > 100 µM
TGI (HCT-116 colon): > 100 µM
TGI (RXF 393 renal): > 100 µM
